Where two headings read alike, the source gives them in different places.
Experiments:
[1] = tested on: HL-60 cells; test: cells; details: Homo sapiens, HL-60, 24 h, read-out: inhibition rate (IR%) on HL-60 cells
[2] = tested on: HeLa cells; test: cells; details: Homo sapiens, 24 h, read-out: inhibition rate (IR%) on HeLa cells
[3] = tested on: MCF-7 cells; test: cells; details: Homo sapiens, MCF7, 24 h, read-out: inhibition rate (IR%) on MCF-7 cells
[4] = tested on: BGC-823 cells; test: cells; details: Homo sapiens, BGC-823, 24 h, read-out: inhibition rate (IR%) on BGC-823 cells
[5] = tested on: K562 cells; test: cells; details: Homo sapiens, K562, 24 h, read-out: inhibition rate (IR%) on K562 cells
[6] = tested on: BGC-823 cells; details: MTT, 24 h
[7] = tested on: K562 cells; design: inhibition rate (IR%) on K562 cells: dose or concentration left out as unconfirmed
[8] = tested on: HL-60 cells; details: MTT, 24 h
[9] = tested on: HeLa cells; details: MTT, 24 h
[10] = tested on: murine leukemia P388 and L1210, and human epidermoid carcinoma KB cells; details: one range for both compounds and three cell lines; cited from earlier work
Experimental: (§1) Fellutamide A and B (8) were originally identified for their cytotoxic properties on murine leukemia P388 and L1210, and human epidermoid carcinoma KB cells with IC50 values 0.1–0.8 µg/mL [15].

[11] = tested on: human prostate carcinoma PC-3 cells; details: read-out: IC50, cytotoxic against PC-3 cells; cited from earlier work
Experimental: as §1

[12] = from IR% at different concentrations
[13] = MTT, 24 h at 37 °C, OD 570 nm, OD means of three wells

O=c1[nH]cc(F)c(=O)[nH]1 [Compound 5-FU, 5-fluorouracil]
inhibition at 100 µg/mL [1]: 38.2%
inhibition at 100 µg/mL [2]: 37.4%
inhibition at 100 µg/mL [3]: 47.4%
inhibition at 100 µg/mL [4]: 47.8%
inhibition at 100 µg/mL [5]: 48.5%

CCCCCCCCC[C@@H](O)CC(=O)N[C@@H](CC(N)=O)C(=O)N[C@@H](CCC(N)=O)C(=O)N[C@H](C=O)CC(C)C [Compound 8, Fellutamide B]
half-inhibitory concentration (IC50) for BGC-823 [6, 12]: 77.9 mg/L
IC50 ([6]; read-out: half-inhibitory concentration (IC50) for BGC-823, value in brackets, molar): 140 µM
IC50 ([7]; 24 h): 52.5 µM
half-inhibitory concentration (IC50) for K562 ([7]; MTT, 24 h, from IR% at different concentrations): 29.1 mg/L
half-inhibitory concentration (IC50) for HL-60 [8, 12]: 59.9 mg/L
IC50 ([8]; read-out: half-inhibitory concentration (IC50) for HL-60, value in brackets, molar): 108 µM
half-inhibitory concentration (IC50) for HeLa [9, 12]: 59.5 mg/L
IC50 ([9]; read-out: half-inhibitory concentration (IC50) for HeLa, value in brackets, molar): 107 µM
IC50, cytotoxic properties on P388, L1210 and KB cells [10]: 0.1 to 0.8 mg/L

CCCCC[C@H](OC)c1c(O)cc2c(c1O)C(=O)c1c(O)cc(O)cc1C2=O [Compound 10, 1′-O-Methylaverantin]
inhibition rate (IR%) on K562 cells [7, 13]: 11.6%

CCCCC[C@H](O)c1c(O)cc2c(c1O)C(=O)c1c(O)cc(O)cc1C2=O [Compound 11, Averantin]
inhibition rate (IR%) on K562 cells [7, 13]: 51.9%

C[C@]12CCC[C@H](O1)c1c(cc3c(c1O)C(=O)c1c(O)cc(O)cc1C3=O)O2 [Compound 12, Averufin]
inhibition rate (IR%) on K562 cells [7, 13]: 37.9%

C[C@]12CC[C@H](O)[C@H](O1)c1c(cc3c(c1O)C(=O)c1c(O)cc(O)cc1C3=O)O2 [Compound 13, Nidurufin]
inhibition rate (IR%) on K562 cells [7, 13]: 25.5%

COc1cc2c(c3oc4cccc(O)c4c(=O)c13)[C@@H]1C=CO[C@@H]1O2 [Compound 14, Sterigmatocystin]
inhibition rate (IR%) on K562 cells [7]: 37.5%

Fellutamide A [reference compound]
IC50, cytotoxic properties on P388, L1210 and KB cells [10]: 0.1 to 0.8 mg/L

fellutamide D
IC50 [11]: 0.16 µM

fellutamide E
IC50 [11]: 0.44 µM
